# Key:
# human U87 cells = experiment: microPET/CT of implanted U87 glioma; type: in vivo, SCID mice; details: imaged 10 days after 1×10^6 cells subcutaneously
# Description: In addition to immune diseases, [^18F]D-FAC may also be used to measure dysregulated nucleoside metabolism in cancer. To this end, we examined the utility of [^18F]D-FAC microPET in animal models representative of leukemia or lymphoma, melanoma, and glioma tumors (FIG. 12, where the images are 1 mm coronal sections from [^18F]D-FAC microPET/CT scans 1 hr after probe injection). In FIG. 12A, SCID mice were injected intravenously with Ba/F3 cells expressing p210 BCR-ABL and go on to develop aggressive disease with massive splenic infiltration that typically results in death within ˜15 days (mice shown were imaged on day 12). In FIG. 12B, the NOD SCID mice were transplanted with wild type total bone marrow cells infected with MSCV-GFP-IRES-P185 BCR-ABL retroviral stocks and the leukemic mice were imaged 28 days following transplantation. In FIG. 12C, C57BL/6 was injected subcutaneously with 1×10^5 B16 melanoma cells and imaged 7 days later. In FIG. 12D, SCID mice were injected subcutaneously with 1×10^6 U87 glioma cells and imaged 10 days later. […] [^18F]D-FAC PET also detected implanted murine B16 cells (representative of malignant melanoma) and human U87 cells (representative of glioma tumors). […]
# lymphoma lesion = experiment: PET scan of human subject with lymphoma lesion; type: in vivo; details: coronal PET image
# From the text: FIG. 29 presents PET scan images of a human subject after injection of [^18F]D-FAC. […] The heterogeneous spleen 292 is visible.
# splenic CD8+T cells = experiment: radioactivity in sorted splenic CD8+T cells from mice injected with probe; type: in vivo; details: CD62LLOW/CD44HIGH vs CD62LHIGH/CD44LOW
# From the text: To further investigate the cellular basis of elevated [^18F]D-FAC retention, splenic CD8+T cells from mice injected with [^18F]FAC were fractionated by flow cytometry into naïve (CD62LHIGH/CD44LOW) and effector populations (CD62LLOW/CD44HIGH).
# [1] = test system: L1210 wild type or 10K subcutaneous tumors; experiment: PET of subcutaneous L1210 wild type and 10K tumors; type: in vivo, SCID mice; details: 4 days after injection
# Description: To investigate whether [^18F]D-FAC PET can distinguish gemcitabine-sensitive cancer cells from the resistant cancer cells in vivo, mice were injected with L1210 wild type or 10K cells to establish subcutaneous tumors; mice were scanned with [^18F]FDG PET to confirm that implanted cells were viable and growing in vivo and [^18F]D-FAC PET scans were carried out to compare D-FAC accumulation in gemcitabine sensitive versus resistant cells. […] The mice were injected 4 days prior to imaging.
# Mice were challenged with the MoMSV onco-retrovirus.
# MoMSV-induced sarcomas = experiment: microPET/CT in oncoretrovirus (MoMSV) sarcoma model of anti-tumor immunity
# Description: All the mice used in these studies were bred and maintained according to the guidelines of the Department of Laboratory Animal Medicine (DLAM) at the University of California, Los Angeles. For the oncoretrovirus-induced sarcoma model, C57/BL6 mice were challenged intramuscularly in the right triceps with the Moloney murine sarcoma and leukemia virus complex (MoMSV) in a volume of 100 uL of PBS as described previously^6. B6-MRL-Fas^1pr/J mice used for systemic autoimmunity studies were purchased from the Jackson Laboratory (stock number 000482). To monitor the immunosuppressive treatment, these mice were given intraperitoneal injections of dexamethasone (DEX, 10 mg/kg) at 24 hr intervals and were scanned by microPET/CT 24 hr after the last injection. Animals were anesthetized with 2% isoflurane, injected intravenously with 200 microCi [^18F]D-FAC and then scanned with microPET/CT; mice were sacrificed immediately after imaging. Organs were rapidly excised, weighed, and the radioactivity was measured in a well counter. After decay correction, results were expressed as percent of the injected dose of activity per gram of tissue (% ID/g). Other mice were anesthetized with 2% isoflurane and injected intravenously with 1 mCi [^18F]D-FAC. After 1 hr, mice were euthanized, embedded in 3% carboxymethyl cellulose (CMC, Sigma), and frozen in 100% ethanol with dry ice for 45 min. The 50 micron sections were cut using a whole body cryostat, (PMV, Stockholm, Sweden); samples were exposed overnight on BAS-TR2025 plates (Fujifilm Life Science, Stamford, Conn.). Imaging plates were read using a Fujibas-5000 phosphorimager (16 bit, 25 micron resolution; Fujifilm Life Science).
# In this model, antigen-specific T cells primed by immunodominant epitopes encoded by viral gag and env genes rapidly expand in spleen and tumor draining lymph nodes (DLNs) and then traffic to the tumor lesion which is rejected over a period of 2-5 weeks^17,18. In fact, the kinetics of T cell responses against MoMSV-induced sarcomas have been studied extensively using conventional ex vivo approaches and our group has used PET reporter gene imaging to visualize tumor rejection in this model^17. To analyze whether the [^18F]D-FAC microPET/CT imaging can detect sites of localized immune activation, mice were scanned before and after the virus challenge.
# To determine whether [^18F]D-FAC can provide unique information regarding localized immune activation via the afore-mentioned model, the mice imaged by [^18F]D-FAC were also scanned on consecutive days using [^18F]FDG and [^18F]FLT.
smiles,measurement,setting,value
"Nc1ccn([C@@H]2O[C@H](CO)[C@@H](O)[C@@H]2[18F])c(=O)n1 [[^18F]D-FAC, 1-(2′-deoxy-2′-[^18F]fluoro-β-D-arabinofuranosyl)cytosine]",detection of implanted tumor cells by PET,human U87 cells,detected
same,concentration in lymph node,lymphoma lesion,high concentration
same,retention in effector CD8+T cells versus naïve cytotoxic T cells,splenic CD8+T cells,~4 fold
same,"retention/visualization in dCK deficient, gemcitabine resistant tumors",[1]; L1210-10K,did not accumulate
same,"retention/visualization in dCK positive, gemcitabine sensitive tumors",[1]; L1210 WT,clearly detectable
same,accumulation in the spleen and tumor DLNs relative to baseline scans,"MoMSV-induced sarcomas; day 15, peak of anti-tumor immune response",significantly increased
same,accumulation in the tumor,MoMSV-induced sarcomas; tumor,6.7±0.3 % ID/g
same,accumulation in the tumor DLNs,MoMSV-induced sarcomas; tumor draining lymph nodes,13±2.7 % ID/g
same,accumulation in tumor over background (contralateral muscle tissue),MoMSV-induced sarcomas; tumor lesions,1.9±0.3 % ID/g tumor over background
